From patent EP1675855B1, “4-AMINO-QUINOLINE OUINOLIZIDINYL-AND QUINOLIZIDINYLALKYL-DERIVATIVES WITH ANTIMALARIAL ACTIVITY” (Need Pharmaceuticals S.r.l., priority 2003, dated 2005)

Key:
[1] = test system: chloroquine-resistant P. falciparum strains; assay: microbe, parasite or virus in culture; settings: Plasmodium falciparum
Protocol: (§1) The compounds of the invention were tested in vitro on chloroquine-sensitive and chloroquine-resistant strains of P. falciparum. […] Parasites' growth was evaluated with a colorimetric assay for pLDH at 72 hours.

[2] = test system: chloroquine-sensitive P. falciparum strains; assay: microbe, parasite or virus in culture; settings: Plasmodium falciparum
Protocol: as §1

CCN(CC)CCCC(C)Nc1ccnc2cc(Cl)ccc12 (centres unmarked) [chloroquine, 7-chloro-4-(4-diethylamino-1-methylbutylamino)quinoline]
IC50 [1]: 150 to 300 nM
IC50 [2]: 27.8 ± 9 nM
